Patent US20080254497A1, “Response Predictors for Erbb Pathway-Specific Drugs” (MONOGRAM BIOSCIENCES, INC., priority 2004, published 2008)

Experiments:
Her2-Her3 heterodimers = target: T1, Her2-Her3 heterodimers (Homo sapiens, UniProt P21860); assay: Releasable molecular tag assay of cell lysates for Her2-Her3 heterodimers; type: cell-based; settings: MCF-7 cells, increasing ligand concentrations, 10 minutes at 37° C., FIG. 4C
T1 construct: endogenous in cells; host or cells: MCF-7
Procedure: Measurements are made using three binding compounds and a cleaving probe as described below.
7.3.1 Sample Preparation: • 1. Serum-starve breast cancer cell line culture overnight before use. • 2. […] Aspirate culture media, transfer onto ice, and add lysis buffer to lyse cells in situ. • 4. Scrape and transfer lysate to microfuge tube. Incubate on ice for 30 min. Microfuge at 14,000 rpm, 4° C., for 10 min. (Centrifugation is optional.) • 5. Collect supernatants as lysates and aliquot for storage at −80° C. until use.
Assay design: As illustrated diagrammatically in FIG. 4A, Her2-Her3 heterodimers (900) are quantified ratiometrically based on the binding of cleaving probe (902) and binding compounds (904), (906), and (908). A photosensitizer indicated by “PS” is attached to cleaving probe (902) via an avidin-biotin linkage, and binding compounds (904), (906), and (908) are labeled with molecular tags Pro14, Pro10, and Pro11, respectively. Binding compound (904) is specific for a phosphorylation site on Her3.
The total assay volume is 40 ul. The lysate volume is adjusted to 30 ul with lysis buffer. […]
7.3.3 Data Analysis: • 1. Normalize relative fluorescence units (RFU) signal of each molecular tag against CE reference standard A315 (a fluorescein-derivatized deoxyadenosine monophosphate that has known peak position relative to molecular tags from the assay upon electrophoretic separation). • 2. […]

[1] = tested on: Her receptor phosphorylation; assay: Fixed cell pellet sections, receptor phosphorylation; type: cell-based, human; settings: 100 nM vs non-stimulated
Procedure: In this example, model fixed tissues made from pelleted cell lines were assayed for the presence of Her receptor dimers. The assay design for heterodimers was essentially the same as that described in FIG. 4A, with exceptions as noted below. That is, four components are employed: (i) a cleaving probe comprising a biotinylated monoclonal antibody conjugated to a cleavage-inducing moiety (in this example, a photosensitizer-derivatized streptavidin, as illustrated in FIG. 3E) and specific for one of the receptors of the dimer, (ii) a monoclonal antibody derivatized with a first molecular tag and specific for the same receptor as the cleaving probe, (iii) a monoclonal antibody derivatized with a second molecular tag and specific for the receptor opposite to that the cleaving probe is specific for, and (iv) a monoclonal antibody derivatized with a third molecular tag and specific for an intracellular phosphorylated tyrosine. The assay design for homodimers was essentially the same as that described in FIG. 1D, with exceptions as noted below.
In each case, model fixed tissues were prepared as follows: cells grown on tissue culture plates were stimulated with either EGF or HRG as described in the prior examples, after which they were washed and removed by scrapping. […]

Her1 phosphorylation = assay: Releasable molecular tag assay of cell lysates for Her1 phosphorylation; type: cell-based, human; settings: BT-20 cells, increasing ligand concentration, FIG. 6B
Procedure: Sample preparation was carried out essentially as described in Example 2.
Assay design: A monoclonal antibody specific to the receptor is separately conjugated with either a molecular tag or biotin (that is then linked to a photosensitizer via an avidin bridge), so that the cleaving probe and a binding compound compete to bind to the same epitope in this example. Another binding compound is used that consists of a second antibody recognizing an overlapping epitope on the receptor, so that a ratiometric signal can be generated as a measure of homodimerization. The signal derived from the second antibody also provides a measure of the total amount of receptor in a sample. The total amount of receptor is determined in a separate assay well. Receptor phosphorylation can be quantified together with either homodimerization or total receptor amount.
The assay volume is 40 ul and the general procedure is similar to that of Example 2. Two assay wells, A and B, are set up for each sample to quantify homodimerization and total amount of receptor separately.
• Pro10_anti-Her-1: 0.05-0.1 ug/ml • Pro2_anti-phospho-Tyr: 0.1 ug/ml • Biotin_anti-Her-1: 1-2 ug/ml
7.5.2 Data Analysis: • 1. Normalize RFU signal of each molecular tag against CE reference standard A315. • 2. Subtract RFU of “no lysate” background control from corresponding molecular tag signals. • 3. […]

[2] = tested on: human cell lines (head and neck, breast, and gastric); settings: cited from earlier work
[3] = tested on: activation of EGFR, erbB2, Erk1/2, and Akt; settings: treatment of tumor xenografts; cited from earlier work

| Compound | quantity of Her2-Her3 heterodimers (Her2-Her3 heterodimers) | Her receptor phosphorylation ([1]; fixed pellets of 22Rv1 cells, FIG. 15D) | intracellular phosphorylation ([1]; fixed pellets of MDA-MB-468 cells, FIG. 15A) | quantity of Her1 phosphorylation (Her1 phosphorylation) | IC90, growth inhibition of human cell lines ([2]; head and neck, breast, and gastric cell lines in vitro) [µg/mL] | outgrowth following cessation of treatment ([2]; up to 18 days following cessation of treatment) | activation of EGFR, erbB2, Erk1/2, and Akt in tumor xenografts [3] |
| --- | --- | --- | --- | --- | --- | --- | --- |
| EGF: epidermal growth factor, peptide that binds to the cell-surface EGFR; used to stimulate cell lines | essentially no change | up-regulation | increases | increases |  |  |  |
| CS(=O)(=O)CCNCc1ccc(-c2ccc3ncnc(Nc4ccc(OCc5cccc(F)c5)c(Cl)c4)c3c2)o1 [GW572016] |  |  |  |  | < 1.313 | no outgrowth observed | inhibition |
